Measured values reported in patent US6586425B2, “Cytoskeletal active agents for glaucoma therapy” (Wisconsin Alumni Research Foundation, priority 1996, dated 2003).
“And” between values parts separate entries of the source, which are not always exact repeats. Equal entries are not always repeated.

Legend:
living monkey eyes [1] = assay: Aqueous humor protein concentration (Lowry method); format: in vivo, cynomolgus monkeys (Macaca fascicularis); settings: for [Protein]AC increase vs contralateral control eyes: 4 μg LAT-B topical, insignificant
Description: Approximately 5.5 hr after LAT-A and vehicle (25% DMSO) administration, or approximately 6.5 hr after LAT-B and vehicle (25% DMSO) administration, when AHF measurements had been completed, a sample of AH was obtained under a Zeiss surgical microscope, using a 30-gauge needle connected via polyethylene tubing to a tuberculin syringe. The needle was threaded through the corneal stroma for 6 mm, then directed into the AC so that the wound was self-sealing. AH entered the tubing by very gentle suction with the tuberculin syringe; only occasionally was brief mild pressure on the cornea with a needle holder required to promote the initial flow of AH into the tubing via the very thin needle. Approximately 60-80 μl of AH was removed, leaving a shallow but not completely flattened AC. In separate protocols with different monkeys, AH was similarly obtained 2 hr after 42 μg LAT-A or 1 hr after 4 μg LAT-B to one eye and vehicle to the opposite eye. The AH samples were stored at −20° C. for up to 24 hr. The protein concentration in each sample was assayed by the Lowry method, as known in the art (See e.g., Lowry et al., J. Biol. Chem., 193:265-275[1951]; and Peterson et al., Anal. Biochem., 100:201-220[1979]), in duplicate, and the result averaged. Duplicate sets of protein standards containing 0, 1, 3, 5, 10, 20, 40, or 60 μg bovine serum albumin (BSA) were assayed by the same method and results averaged and graphed to give a linear equation that was used to estimate the protein content in the AH samples. The optical density of each sample was measured at 660 nm using a Spectronic 20 Spectrophotometer (Bausch and Lomb).

living monkey eyes [2] = assay: Slit lamp biomicroscopy (ocular tolerability); format: in vivo, cynomolgus monkeys (Macaca fascicularis); settings: for corneal endothelial cell borders: one to 5 hr after topical drug
living monkey eyes [3] = assay: Aqueous humor flow and corneal endothelial transfer coefficient ka by fluorophotometry; settings: for AHF Rx, LAT-B/Vehicle / AHF Rx/BL, LAT-B eye / AHF Rx/BL, LAT-B/Vehicle / ka Rx, LAT-B eye / ka Rx, LAT-B/Vehicle / ka Rx/BL, LAT-B eye / ka Rx/BL, LAT-B/Vehicle: 4.0 μg LAT-B topical
living monkey eyes [4] = assay: Intraocular pressure by Goldmann applanation tonometry; format: in vivo, cynomolgus monkeys (Macaca fascicularis); settings: for time to IOP reduction after administration: living monkeys, topical
Method: The intraocular pressure (IOP) was determined with a “minified” Goldmann applanation tonometer (Kaufman and Davis, Arch. Ophthalmol., 98:542-546[1980]), using “Half and Half®” creamer solution (Borden) as the tear film indicator (Croft et al., in Lakshminarayanan (ed.), Basic and Clinical Applications of Vision Science, Dordtecht, Kluwer, [1997], pp. 213-216), with the monkey lying prone in a head holder and the eyes positioned 4 to 8 cm above the heart. All monkeys were examined by slit-lamp before the first IOP measurement in each protocol. For each eye, two or three IOP measurements were averaged as a baseline.
After baseline IOP was measured, 21 or 42 μg LAT-A or 4 μg LAT-B were administered to the central cornea of supine monkeys in one eye and the vehicle to the opposite eye. Blinking was prevented with lid speculums during and for 5 min. after drug administration (taking care to avoid touching the globe), to maximize drug penetration into the AC and minimize systemic absorption. Following drug administration, the speculums were gently removed and the monkeys were kept in the supine position for another 15 min to further facilitate penetration of drug/vehicle solution into the AC. For LAT-A, IOP was then measured every hr for 7 to 9 hr beginning 1, 6, or 15 hr after the 21 gg dose, or beginning 1 or 6 hr after the 42 μg dose, and again at 24 hr. Each protocol included two groups of monkeys. Group one (6 monkeys) underwent IOP measurement from 1-9 hr and again at 24 hr after the drug; group two (6 monkeys) were measured from 6-13 hr for both doses and again from 15 hr-21 hr on a separate occasion for the 21 μg dose. For both doses, one monkey in group one was used again in group two; therefore its two readings measured at baseline or the period 6-9 hr after the drug on the two different occasions was averaged for data analysis. Thus, “n” for baseline and the period 6-9 hr post-drug is 11 rather than 12. During intervals between the post-drug reading at 9 hr and that at 24 hr for group one or between the drug administration and the first post-drug reading at 6 hr for group two, the animals were returned to the Animal Care Unit for recovery. For LAT-B, IOP was measured every hr for 6 hr beginning 1 hr after the 4 μg dose, and again at 24 hr. The animals were returned to the Animal Care Unit for recovery between the measurements at 6 hr and 24 hr. Anterior segments were examined by slit-lamp at 3, 6, 10 or 24 hr after LAT-A, or at 1, 3, 6 or 24 hr after LAT-B.

[5] = 42 μg LAT-A topical, second 3 hr
[6] = 42 μg LAT-A topical, hour 0.5 to 3.0, n=8
[7] = 42 μg LAT-A topical, hour 0.5 to 6.0, n=8
[8] = 42 μg LAT-A topical, hour 3.5 to 6.0, n=8

SMILES: C/C1=C/C(=O)O[C@@H]2C[C@@H](CC[C@H](C)/C=C\C=C\CC1)O[C@@](O)([C@@H]1CSC(=O)N1)C2 [LAT-A]
- [Protein]AC vs vehicle-treated eyes (living monkey eyes [1]; 42 μg LAT-A topical, 5.5 hr): no difference in protein concentration
- [Protein]AC higher than in vehicle-treated eyes (living monkey eyes [1]; 42 μg LAT-A topical, two hr, n=7): 25±9%
- recovery of endothelial refractile spots (living monkey eyes [2]; higher dose of LAT-A (42 μg)): most recovered by 10 hr
- recovery of endothelial refractile spots (living monkey eyes [2]; lower dose of LAT-A (21 μg)): recovered almost completely by 6 hr
- corneal endothelial cell borders (living monkey eyes [2]): indistinct
- relative difference in ka between first and second 3-hr intervals (living monkey eyes [3]; 42 μg LAT-A topical): 27±12%
- increase in ka (living monkey eyes [3]; 42 μg LAT-A topical, first 3 hr): 106±16%
- increase in apparent AHF relative to vehicle, adjusted for baseline (living monkey eyes [3]; 42 μg LAT-A topical, first 3 hr, n=8): 87% and 87±13%
- increase in ka (living monkey eyes [3]; 42 μg LAT-A topical, overall, n=8): 94±9%
- AHF, drug- vs vehicle-treated eyes (living monkey eyes [3]; [5]): no significant differences
- increase in ka (living monkey eyes [3]; [5]): 68±10%
- AHF Rx, LAT-A eye (living monkey eyes [3]; [6]): 3.48 microliters per minutes
- AHF Rx, LAT-A/Vehicle (living monkey eyes [3]; [6]): 1.94
- AHF Rx/BL, LAT-A eye (living monkey eyes [3]; [6]): 1.82
- AHF Rx/BL, LAT-A/Vehicle (living monkey eyes [3]; [6]): 1.87
- ka Rx, LAT-A eye (living monkey eyes [3]; [6]): 0.00996 min⁻¹
- ka Rx, LAT-A/Vehicle (living monkey eyes [3]; [6]): 2.15
- ka Rx/BL, LAT-A eye (living monkey eyes [3]; [6]): 1.84
- ka Rx/BL, LAT-A/Vehicle (living monkey eyes [3]; [6]): 2.06
- AHF Rx, LAT-A eye (living monkey eyes [3]; [7]): 2.65 microliters per minutes
- AHF Rx, LAT-A/Vehicle (living monkey eyes [3]; [7]): 1.51
- AHF Rx/BL, LAT-A eye (living monkey eyes [3]; [7]): 1.38
- AHF Rx/BL, LAT-A/Vehicle (living monkey eyes [3]; [7]): 1.51
- ka Rx, LAT-A eye (living monkey eyes [3]; [7]): 0.00961 min⁻¹
- ka Rx, LAT-A/Vehicle (living monkey eyes [3]; [7]): 1.98
- ka Rx/BL, LAT-A eye (living monkey eyes [3]; [7]): 1.72
- ka Rx/BL, LAT-A/Vehicle (living monkey eyes [3]; [7]): 1.94
- AHF Rx, LAT-A eye (living monkey eyes [3]; [8]): 1.87 microliters per minutes
- AHF Rx, LAT-A/Vehicle (living monkey eyes [3]; [8]): 1.00
- AHF Rx/BL, LAT-A eye (living monkey eyes [3]; [8]): 1.00
- AHF Rx/BL, LAT-A/Vehicle (living monkey eyes [3]; [8]): 1.01
- ka Rx, LAT-A eye (living monkey eyes [3]; [8]): 0.00925 min⁻¹
- ka Rx, LAT-A/Vehicle (living monkey eyes [3]; [8]): 1.69
- ka Rx/BL, LAT-A eye (living monkey eyes [3]; [8]): 1.59
- ka Rx/BL, LAT-A/Vehicle (living monkey eyes [3]; [8]): 1.68
- period of lowered IOP after drug administration (living monkey eyes [4]; 21 μg LAT-A topical): 5 to 10 h
- maximal IOP decrease below baseline (living monkey eyes [4]; 21 μg LAT-A topical, at 8 hr, n=11): 3.48±1.29 mmHg
- period of lowered IOP after drug administration (living monkey eyes [4]; 42 μg LAT-A topical): 6 to 13 h
- maximal IOP reduction below baseline (living monkey eyes [4]; 42 μg LAT-A topical, at 9 hr, n=11): 4.60±1.61 mmHg
- time to IOP reduction after administration (living monkey eyes [4]): 6 h

SMILES: C/C1=C/C(=O)O[C@@H]2C[C@@H](CC[C@H](C)/C=C\CC1)O[C@@](O)([C@@H]1CSC(=O)N1)C2 [LAT-B]
- [Protein]AC increase vs contralateral control eyes (living monkey eyes [1]; 1 hr, n=4): 80±51%
- [Protein]AC increase vs contralateral control eyes (living monkey eyes [1]; 6.5 hr, n=6): 11±24%
- corneal endothelial cell borders (living monkey eyes [2]): indistinct
- effect on AHF (living monkey eyes [3]; 4 μg LAT-B topical, first 3 hr): small, insignificant increase in AHF
- increase in ka (living monkey eyes [3]; 4 μg LAT-B topical, first 3 hr): 58±20%
- increase in ka (living monkey eyes [3]; 4 μg LAT-B topical, overall 6 hr, n=6): 39±5%
- AHF Rx, LAT-B/Vehicle (living monkey eyes [3]; hour 0.5 to 3.0, n=6): 1.33
- AHF Rx/BL, LAT-B eye (living monkey eyes [3]; hour 0.5 to 3.0, n=6): 1.31
- AHF Rx/BL, LAT-B/Vehicle (living monkey eyes [3]; hour 0.5 to 3.0, n=6): 1.33
- ka Rx, LAT-B eye (living monkey eyes [3]; hour 0.5 to 3.0, n=6): 0.00735 min⁻¹
- ka Rx, LAT-B/Vehicle (living monkey eyes [3]; hour 0.5 to 3.0, n=6): 1.62
- ka Rx/BL, LAT-B eye (living monkey eyes [3]; hour 0.5 to 3.0, n=6): 1.44
- ka Rx/BL, LAT-B/Vehicle (living monkey eyes [3]; hour 0.5 to 3.0, n=6): 1.58
- AHF Rx, LAT-B/Vehicle (living monkey eyes [3]; hour 0.5 to 6.0, n=6): 1.14
- AHF Rx/BL, LAT-B eye (living monkey eyes [3]; hour 0.5 to 6.0, n=6): 1.04
- AHF Rx/BL, LAT-B/Vehicle (living monkey eyes [3]; hour 0.5 to 6.0, n=6): 1.16
- ka Rx, LAT-B eye (living monkey eyes [3]; hour 0.5 to 6.0, n=6): 0.00648 min⁻¹
- ka Rx, LAT-B/Vehicle (living monkey eyes [3]; hour 0.5 to 6.0, n=6): 1.34
- ka Rx/BL, LAT-B eye (living monkey eyes [3]; hour 0.5 to 6.0, n=6): 1.33
- ka Rx/BL, LAT-B/Vehicle (living monkey eyes [3]; hour 0.5 to 6.0, n=6): 1.39
- AHF Rx, LAT-B/Vehicle (living monkey eyes [3]; hour 3.5 to 6.0, n=6): 0.93
- AHF Rx/BL, LAT-B eye (living monkey eyes [3]; hour 3.5 to 6.0, n=6): 0.84
- AHF Rx/BL, LAT-B/Vehicle (living monkey eyes [3]; hour 3.5 to 6.0, n=6): 0.91
- ka Rx, LAT-B eye (living monkey eyes [3]; hour 3.5 to 6.0, n=6): 0.0063 min⁻¹
- ka Rx, LAT-B/Vehicle (living monkey eyes [3]; hour 3.5 to 6.0, n=6): 1.21
- ka Rx/BL, LAT-B eye (living monkey eyes [3]; hour 3.5 to 6.0, n=6): 1.31
- ka Rx/BL, LAT-B/Vehicle (living monkey eyes [3]; hour 3.5 to 6.0, n=6): 1.25
- maximal IOP reduction, adjusted for baseline and contralateral control eyes (living monkey eyes [4]; 4 μg LAT-B topical, 6 hr, n=8): 3.1±1.2 mmHg
- IOP (living monkey eyes [4]; 4 μg LAT-B topical, at 6 hr (from 17 mmHg)): 13.5 mmHg
- IOP (living monkey eyes [4]; 4 μg LAT-B topical, within 1 hr (from 17 mmHg)): 15 mmHg
- time to IOP reduction after administration (living monkey eyes [4]): ≤ 1 h
